{"source": "patent US6538028B1", "about": "“Method for inhibiting complement activation” (Vanderbilt University, priority 2000, dated 2003)", "key": {"[1]": {"system": "piglet lungs perfused with human blood", "protocol": "[…] piglets (4-6 kg) were used in an established in situ ex vivo isolated lung perfusion model. Piglet lungs were perfused with unmodified human blood or blood treated with either aurintricarboxylic acid (ATA, 0.5 mg/mL; GPIb inhibitor), SC52012A (SC, 0.2 μg/mL; GPIIb/IIIa antagonist, G.D. Searle & Co. of Chicago, Ill.), or both. Thus, experimental groups received either 500 mg of ATA, 200 μg of SC52012A, or both drugs added to fresh human blood perfusate (pooled from three donors) prior to lung perfusion, while control groups received unmodified blood.\nPulmonary vascular resistance (PVR) was calculated from pulmonary artery land vein pressures and flow. Pulmonary vein effluent was collected serially for comparison of complement activation (C3a), mast cell activation (histamine) and thromboxane production (TXB2) between groups. Survival endpoints were loss of transpulmonary flow, loss of oxygenation across the lungs, frank tracheal edema, and loss of perfusate volume (˜1L) into lung parenchyma."}, "complement (C3a, C5b-9)": {"system": "complement (C3a, C5b-9)", "details": "for C3a Mean: mean of two samples; for C3a / C5b-9: single sample", "protocol": "Platelet poor plasma (PPP—Example 4) and platelet rich plasma (PRP—Example 5) was prepared from human heparinized blood. Human plasma was treated with ATA (0.5 mg/ml), SC (0.5 μg/ml), ATA+SC, bivalirudin (HIRULOG®, 0.1 g/L), or water (negative control) and then incubated in presence of zymosan (10 mg/mL) or cobra venom factor (CVF, 1 or 5 U/mL) to activate complement (negative control is water), for one hour at 37° C. with shaking. Then, the samples were subjected to centrifugation at 10,000 g for 45 minutes. The supernatant was then frozen in small aliquots at −70° C. C3a and C5b-9 levels were then assayed using commercial ELISA kits (Quidel)."}, "[2]": {"system": "piglet lungs perfused with heparinized human blood", "protocol": "In an established in situ, ex vivo model, piglet lungs were perfused with either heparinized (3,000 U/L) human blood or with blood additionally pretreated with 140 mg/L of bivalirudin (a semisynthetic analogue of hirudin). Pulmonary vein effluent was collected serially for measurement of complement activation (C3a), mast cell activation (histamine), and thrombin formation (F1+2). Survival endpoints were loss of transpulmonary blood flow, loss of oxygenation across the lungs, and sequestration of perfusate volume (˜1 L) into the lung. Statistical comparisons were made using the 2-tailed t-test."}, "[3]": {"details": "PPP, CVF 1U, listed as HIRULOG ®"}}, "note": "Values joined by “and” are separate entries in the source; they are usually repeats but may differ in a detail not shown here. Identical values can stand only once. Like-named read-outs stand apart in the source and are kept apart here. Marks after values point to notes of the source that are not given here.", "data": [{"molecule": "O=C(O)C1=CC(=C(c2ccc(O)c(C(=O)O)c2)c2ccc(O)c(C(=O)O)c2)C=CC1=O", "note": "[ATA, aurintricarboxylic acid]", "values": [{"measurement": "ΔC3a, 1 min, μg/mL (Mean ± SEM)", "setting": "[1]; 1 min, pulmonary vein effluent", "result": "0.30* μg/mL"}, {"measurement": "Platelet sequestration at 10 min", "setting": "[1]; 10 min, controls 89%", "result": 51, "unit": "%"}, {"measurement": "ΔC3a, 10 min, μg/mL (Mean ± SEM)", "setting": "[1]; 10 min, pulmonary vein effluent", "result": 1.81, "unit": "µg/mL"}, {"measurement": "median survival", "setting": "[1]; control 12 min", "result": 25, "unit": "min"}, {"measurement": "Median Survival in min (95% conf int)", "setting": "[1]; pig lung perfused with human blood, ATA 0.5 mg/mL, SC 0.2 μg/mL", "result": "25* min"}]}, {"molecule": "bivalirudin", "values": [{"measurement": "C5b-9 Mean", "setting": "complement (C3a, C5b-9); PPP, CVF 1U", "result": 917, "unit": "ng/mL"}, {"measurement": "C3a Mean", "setting": "complement (C3a, C5b-9); PPP, CVF 1U", "result": 1350, "unit": "ng/mL"}, {"measurement": "C3a", "setting": "complement (C3a, C5b-9); [3]", "result": "1250 ng/mL and 1450 ng/mL"}, {"measurement": "C5b-9", "setting": "complement (C3a, C5b-9); [3]", "result": "890 ng/mL and 943 ng/mL"}, {"measurement": "C5b-9 Mean", "setting": "complement (C3a, C5b-9); PPP, water (no activator)", "result": 26, "unit": "ng/mL"}, {"measurement": "C3a Mean", "setting": "complement (C3a, C5b-9); PPP, water (no activator)", "result": 548, "unit": "ng/mL"}, {"measurement": "C5b-9", "setting": "complement (C3a, C5b-9); PPP, water (no activator)", "result": 26, "unit": "ng/mL"}, {"measurement": "C3a", "setting": "complement (C3a, C5b-9); PPP, water (no activator), 1 h 37° C., listed as HIRULOG ®", "result": "590 ng/mL and 505 ng/mL"}, {"measurement": "C5b-9 Mean", "setting": "complement (C3a, C5b-9); PRP, CVF 1U", "result": 842, "unit": "ng/mL"}, {"measurement": "C3a Mean", "setting": "complement (C3a, C5b-9); PRP, CVF 1U", "result": 1650, "unit": "ng/mL"}, {"measurement": "C5b-9", "setting": "complement (C3a, C5b-9); PRP, CVF 1U", "result": 842, "unit": "ng/mL"}, {"measurement": "C3a", "setting": "complement (C3a, C5b-9); PRP, CVF 1U, listed as HIRULOG ®", "result": "1800 ng/mL and 1500 ng/mL"}, {"measurement": "C5b-9 Mean", "setting": "complement (C3a, C5b-9); PRP, water (no activator)", "result": 126, "unit": "ng/mL"}, {"measurement": "C3a Mean", "setting": "complement (C3a, C5b-9); PRP, water (no activator)", "result": 435, "unit": "ng/mL"}, {"measurement": "C5b-9", "setting": "complement (C3a, C5b-9); PRP, water (no activator)", "result": 126, "unit": "ng/mL"}, {"measurement": "C3a", "setting": "complement (C3a, C5b-9); PRP, water (no activator), 1 h 37° C., listed as HIRULOG ®", "result": "490 ng/mL and 380 ng/mL"}, {"measurement": "thrombin production limited (as measured by F1+2)", "setting": "[2]", "result": "more than 90%"}, {"measurement": "ΔC3a 1 min μg/ml (± SEM)", "setting": "[2]; 1 min", "result": "0.82 (0.8)* μg/ml"}, {"measurement": "PVR cm H2O/mL/min 5 min (± SEM)", "setting": "[2]; 5 min", "result": "0.16 (.05)* cm H2O/mL/min"}, {"measurement": "Δ histamine 10 min nM (± SEM)", "setting": "[2]; 10 min", "result": "21 (4)* nM"}, {"measurement": "ΔC3a 10 min μg/ml (± SEM)", "setting": "[2]; 10 min", "result": "1.97 (1) μg/ml"}, {"measurement": "ΔF1 + 2 10 min nM (± SEM)", "setting": "[2]; 10 min, thrombin formation", "result": "0.5 (0.8)* nM"}, {"measurement": "Survival Min (± SEM)", "setting": "[2]; bivalirudin 140 mg/L in heparinized human blood", "result": "77 (22)* Min"}, {"measurement": "mean survival", "setting": "[2]; control 8 minutes", "result": 77, "unit": "min"}, {"measurement": "Complement activation", "setting": "[2]; in words", "result": "significantly blunted"}, {"measurement": "histamine release", "setting": "[2]; in words", "result": "significantly decreased"}, {"measurement": "intrapulmonary platelet sequestration", "setting": "[2]; in words", "result": "significantly blunted"}, {"measurement": "rise in PVR", "setting": "[2]; in words", "result": "significantly decreased"}]}]}
